Results from ChEMBL document CHEMBL1139449, “Synthesis and inhibitory activity against COX-2 catalyzed prostaglandin production of chrysin derivatives” (Bioorg Med Chem Lett, 2004).

system: RAW264.7; assay: Evaluated for inhibition of COX-2 catalyzed PGE-2 production from LPS induced RAW 264.7 cells; Range: 0.1-0.5 uM; assay type: functional, cell-based; conditions: Mus musculus

IC50 [µM]	SMILES
< 0.5	COc1ccc2c(=O)cc(-c3ccc(Cl)c(Cl)c3)oc2c1
< 0.5	O=c1cc(-c2ccc(Cl)c(Cl)c2)oc2cc(O)ccc12
< 0.5	COc1cccc2oc(-c3ccc(Cl)c(Cl)c3)cc(=O)c12

system: RAW264.7; assay: Evaluated for inhibition of COX-2 catalyzed PGE-2 production from LPS induced RAW 264.7 cells; assay type: functional, cell-based; conditions: Mus musculus

IC50 [µM]	SMILES
0.5	COc1ccc2c(=O)cc(-c3ccc(Cl)cc3)oc2c1
0.5	O=c1cc(-c2ccccc2)oc2ccccc12 [FLAVONE]
0.5	CS(=O)(=O)Nc1ccc([N+](=O)[O-])cc1OC1CCCCC1 [NS-398]
1.08	COc1c(O)cc(O)c2c(=O)cc(-c3ccccc3)oc12 [WOGONIN]
